Drawing on patent publication US7842812B2, “Substituted 5-aminomethy1-1H-pyrrole-2-carboxylic acid amides” (Gruenenthal GmbH, priority 2004, dated 2010), this text covers 5HT uptake inhibition, NA uptake inhibition and inhibition for ten molecules.

In general, inhibition refers to the relative decrease from the control value, in per cent.

T2 sequence (Q63380 1-617): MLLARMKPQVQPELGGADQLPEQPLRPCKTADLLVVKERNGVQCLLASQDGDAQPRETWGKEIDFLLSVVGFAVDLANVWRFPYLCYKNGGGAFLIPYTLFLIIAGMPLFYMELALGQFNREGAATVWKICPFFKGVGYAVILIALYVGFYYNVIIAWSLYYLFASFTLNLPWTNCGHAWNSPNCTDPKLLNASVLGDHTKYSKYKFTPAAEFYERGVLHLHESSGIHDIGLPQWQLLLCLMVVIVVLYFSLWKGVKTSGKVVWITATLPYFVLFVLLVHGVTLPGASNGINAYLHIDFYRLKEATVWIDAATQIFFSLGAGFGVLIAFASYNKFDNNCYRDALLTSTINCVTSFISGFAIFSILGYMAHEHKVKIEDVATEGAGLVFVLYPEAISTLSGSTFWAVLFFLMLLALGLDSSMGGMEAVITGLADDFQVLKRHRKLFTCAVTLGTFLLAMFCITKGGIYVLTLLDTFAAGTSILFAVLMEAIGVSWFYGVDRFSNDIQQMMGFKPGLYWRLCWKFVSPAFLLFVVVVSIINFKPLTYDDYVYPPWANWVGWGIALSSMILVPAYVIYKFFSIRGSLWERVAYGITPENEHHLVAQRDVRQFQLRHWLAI
T3 sequence (P35372 whole entry): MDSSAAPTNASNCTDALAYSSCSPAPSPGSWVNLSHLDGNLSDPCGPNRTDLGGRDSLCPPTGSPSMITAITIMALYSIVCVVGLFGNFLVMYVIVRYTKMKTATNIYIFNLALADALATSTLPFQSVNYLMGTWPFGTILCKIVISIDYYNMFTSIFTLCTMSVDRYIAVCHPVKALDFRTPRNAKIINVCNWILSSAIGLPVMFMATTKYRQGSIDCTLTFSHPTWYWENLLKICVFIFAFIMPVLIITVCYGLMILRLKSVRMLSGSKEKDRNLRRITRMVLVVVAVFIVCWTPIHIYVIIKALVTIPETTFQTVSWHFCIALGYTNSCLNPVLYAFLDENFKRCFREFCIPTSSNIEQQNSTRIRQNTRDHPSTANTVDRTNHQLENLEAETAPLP

The target of the first assay is T1, 5-HT transporter (Rattus norvegicus, UniProt P31652).
T1 construct: from tissue; host or cells: rat brain synaptosomes (P2 fraction) from medulla and pons
T1 sequence (P31652 whole entry): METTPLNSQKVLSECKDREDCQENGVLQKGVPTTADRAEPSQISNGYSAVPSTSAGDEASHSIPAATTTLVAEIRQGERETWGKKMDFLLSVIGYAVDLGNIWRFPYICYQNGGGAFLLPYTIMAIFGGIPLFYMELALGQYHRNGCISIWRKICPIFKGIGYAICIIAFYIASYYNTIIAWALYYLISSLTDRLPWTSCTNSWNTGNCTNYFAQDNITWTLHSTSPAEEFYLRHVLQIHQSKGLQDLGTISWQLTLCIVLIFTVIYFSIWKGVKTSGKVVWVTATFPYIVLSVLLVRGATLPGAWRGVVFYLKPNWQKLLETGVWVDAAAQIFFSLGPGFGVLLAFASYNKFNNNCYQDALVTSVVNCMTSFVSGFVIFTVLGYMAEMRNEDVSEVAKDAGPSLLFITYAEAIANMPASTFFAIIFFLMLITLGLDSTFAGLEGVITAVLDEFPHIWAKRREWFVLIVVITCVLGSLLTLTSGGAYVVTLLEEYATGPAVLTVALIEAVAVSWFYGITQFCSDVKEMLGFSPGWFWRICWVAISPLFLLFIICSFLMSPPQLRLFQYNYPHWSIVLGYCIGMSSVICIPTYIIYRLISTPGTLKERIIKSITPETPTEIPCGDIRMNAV
In words: 5-HT uptake inhibition in rat brain synaptosomes (medulla and pons). Type of assay: biochemical. Particulars: 10 μM. The source says:
(§1) b) Method for Determining Noradrenalin and 5-HT Uptake Inhibition:
(§2) Synaptosomes from rat brain regions are freshly isolated for in vitro studies, as described in the publication “The isolation of nerve endings from brain” by E. G. Gray and V. P. Whittaker, J. Anatomy 96, pages 79-88, 1962, the disclosure of which is hereby incorporated by reference. The tissue (hypothalamus for the determination of noradrenalin uptake inhibition and medulla and pons for the determination of 5-HT uptake inhibition) is homogenized in ice-cooled 0.32 M sucrose (100 mg of tissue/1 ml) in a glass homogenizer with Teflon pestle using five complete up and down strokes at 840 revolutions/minute. The homogenate is centrifuged at 4° C. for 10 minutes at 1000 g. After subsequent centrifugation at 17000 g for 55 minutes, the synaptosomes (P2 fraction) are obtained, which are resuspended in 0.32 M […] (0.5 ml/100 mg of original weight).
The particular uptake is measured in a 96-well microtitre plate. The volume is 250 μl and the incubation proceeds at room temperature (approx. 20-25° C.) under an O2 atmosphere. The incubation time is 7.5 minutes for [^3H]-NA and 5 minutes for [^3H]-5-HT. The 96 samples are then filtered through a Unifilter GF/B® microtitre plate (Packard) and washed with […] of incubated buffer using a “Brabdel MPXRI-96T Cell-Harvester”. The Unifilter GF/B plate is dried for 1 hour at 55° C. […] After sealing with a Top Seal® (Packard) and establishing an equilibrium (around 5 hours), radioactivity is determined in a “Trilux 1450 Microbeta” (Wallac).
The quantity of protein used in the above determination corresponds to the values known from the literature, as for example described in “Protein measurement with the folin phenol reagent”, Lowry et al., J. Biol. Chem., 193, 265-275, 1951. […]
(§3) The 5-HT reuptake inhibition and noradrenalin reuptake inhibition of the 5-aminomethyl-1H-pyrrole-2-carboxylic acid amides according to the invention were determined as described above.
In turn, `CC1CCN(Cc2ccc(C(=O)N(C)Cc3ccccc3)n2C)CC1` [Example 1, 1-Methyl-5-(4-methyl-piperidin-1-ylmethyl)-1H-pyrrole-2-carboxylic acid benzyl-methyl amide] came in with a 5HT uptake inhibition of 70 % inhibition.

As to `Cn1c(CN2CCCCCC2)ccc1C(=O)N1CCCC1` [Example 2, (5-Azepan-1-ylmethyl-1-methyl-1H-pyrrol-2-yl)-pyrrolidin-1-yl methanone], the 5HT uptake inhibition was 60 % inhibition.

Molecule `CC1CCCCN1Cc1ccc(C(=O)N2CCCC2)n1C` (stereo not drawn) [Example 3, [1-Methyl-5-(2-methyl-piperidin-1-ylmethyl)-1H-pyrrol-2-yl]-pyrrolidin-1-yl methanone] had a 5HT uptake inhibition of 52 % inhibition.

The next assay addresses T2, NA transporter (Rattus norvegicus, UniProt Q63380).
T2 construct: from tissue; host or cells: rat brain synaptosomes (P2 fraction) from hypothalamus
Kind of assay: Noradrenalin (NA) uptake inhibition in rat brain synaptosomes (hypothalamus). Type of assay: biochemical. Conditions: 10 μM.
Source text: as §1, §2
The particular uptake is measured in a 96-well microtitre plate. The volume is 250 μl and the incubation proceeds at room temperature (approx. 20-25° C.) under an O2 atmosphere. The incubation time is 7.5 minutes for [^3H]-NA and 5 minutes for [^3H]-5-HT. The 96 samples are then filtered through a Unifilter GF/B® microtitre plate (Packard) and washed with […] of incubated buffer using a “Brabdel MPXRI-96T Cell-Harvester”. The Unifilter GF/B plate is dried for 1 hour at 55° C. The plate is then sealed with a Back Seal® (Packard) and 35 μl of scintillation fluid are added per well (Ultima Gold®, Packard). After sealing with a Top Seal® (Packard) and establishing an equilibrium (around 5 hours), radioactivity is determined in a “Trilux 1450 Microbeta” (Wallac).
The quantity of protein used in the above determination corresponds to the values known from the literature, as for example described in “Protein measurement with the folin phenol reagent”, Lowry et al., J. Biol. Chem., 193, 265-275, 1951. A detailed description of the method may additionally be found in the literature, for example in M. Ch. Frink, H.-H. Hennies, W. Engelberger, M. Haurand and B. Wilffert (1996) Arzneim.-Forsch./Drug Res. 46 (III), 11, 1029-1036, the disclosures of which are hereby incorporated by reference.
The following characteristics were determined for the NA or 5-HT transporter: NA uptake: Km=0.32±0.11 μM 5HT uptake: Km=0.084±0.011 μM. c) Investigation of Analgesic Efficacy by the Writhing Test
as §3
On to `CC1CCN(Cc2ccc(C(=O)N(C)Cc3ccccc3)n2C)CC1` [Example 1, 1-Methyl-5-(4-methyl-piperidin-1-ylmethyl)-1H-pyrrole-2-carboxylic acid benzyl-methyl amide], for which the NA uptake inhibition was 81 % inhibition.

As for `CN(C(=O)c1ccc(CN2CCC(Cc3ccccc3)CC2)n1C)C1CCCCC1` [Example 7, 5-(4-Benzyl-piperidin-1-ylmethyl)-1-methyl-1H-pyrrole-2-carboxylic acid cyclohexyl-methyl amide], the NA uptake inhibition is 62 % inhibition.

In turn, “1-Methyl-5-pyrrolidin-1-ylmethyl-1H-pyrrole-2-carboxylic acid benzyl amide [Example 4]” showed an NA uptake inhibition of 82 % inhibition.

Turning to `CCOC(=O)C1CCN(Cc2ccc(C(=O)N(Cc3ccccc3)Cc3ccccc3)n2C)CC1` [Example 6, 1-(5-Dibenzylcarbamoyl-1-methyl-1H-pyrrol-2-ylmethyl)-piperidine-4-carboxylic acid ethyl ester], the NA uptake inhibition is recorded as 74 % inhibition.

As to `CC1CCCCN1Cc1ccc(C(=O)N(Cc2ccccc2)C(C)C)n1C` (stereo not drawn) [Example 9, 1-Methyl-5-(2-methyl-piperidin-1-ylmethyl)-1H-pyrrole-2-carboxylic acid benzyl-isopropyl amide], the NA uptake inhibition stood at 59 % inhibition.

Take `Cn1c(CN2CCC(Cc3ccccc3)CC2)ccc1C(=O)N1CCCCC1` [Example 8, [5-(4-Benzyl-piperidin-1-ylmethyl)-1-methyl-1H-pyrrol-2-yl]-piperidin-1-yl methanone]: the NA uptake inhibition was 61 % inhibition.

With `CC1CCCCN1Cc1ccc(C(=O)N(C)Cc2ccccc2)n1C` (stereo not drawn) [Example 5, 1-Methyl-5-(2-methyl-piperidin-1-ylmethyl)-1H-pyrrole-2-carboxylic acid benzyl-methyl amide], the NA uptake inhibition is on record as 81 % inhibition.

The next assay concerns the target T3, human μ opioid receptor (Homo sapiens, UniProt P35372).
T3 construct: purchased NEN, Zaventem, Belgium RB-HOM; host or cells: CHO-K1 cells (membrane preparation)
Kind of assay: Affinity for human μ opioid receptor ([3H]-naloxone displacement, CHO-K1 membrane preparation, SPA). Conditions: percentage inhibition of specific [3H]-naloxone binding; compound concentration 1 μmol/l; read-out: OR μ1 human naloxone inhibition [%]. The method, then: a) Method for Determining Affinity for Human μ Opioid Receptor
Receptor affinity for the human μ opioid receptor is determined in a homogeneous batch in microtitre plates. […] Once the ninety minute incubation time had elapsed, the microtitre plates were centrifuged off for 20 minutes at 1000 g and the radioactivity measured in a β-Counter (Microbeta-Trilux, from PerkinElmer Wallac, Freiburg, Germany). The percentage displacement of the radioactive ligand from its binding to the human μ opiate receptor is determined at a concentration of the compounds to be tested of 1 μmol/l and stated as percentage inhibition of specific binding. […]
The affinity of the 5-aminomethyl-1H-pyrrole-2-carboxylic acid amides according to the invention for the μ receptor was determined as described above.
As for `CC1CCCCN1Cc1ccc(C(=O)N2CCCCC2)n1C` (stereo not drawn) [Example 10, [1-Methyl-5-(2-methyl-piperidin-1-ylmethyl)-1H-pyrrol-2-yl]-piperidin-1-yl methanone], the inhibition at 1 µM was 86%.

For the molecule `CC1CCCCN1Cc1ccc(C(=O)N2CCCC2)n1C` (stereo not drawn) [Example 3, [1-Methyl-5-(2-methyl-piperidin-1-ylmethyl)-1H-pyrrol-2-yl]-pyrrolidin-1-yl methanone], the inhibition at 1 µM came to 83%.
